# Tests used:
# LDL = test: Inhibition of LDL lipid peroxidation (cupric sulfate induced, thiobarbituric acid assay, method of Yagi et al.); format: biochemical; settings: 250 µg LDL in 0.5 mL, cupric sulfate 18 µM, 37°C for 2.5 hours or 18 hours; for IC50: read-out: LDL Perox. IC₅₀; for LDL Perox. ID₅₀: dose required to inhibit 50% of LDL peroxidation
# Method: (§1) Determine the degree of inhibition of LDL and plasma lipid peroxidation by [8]-gingerol and anti-[8]-gingerdiol by the method of Yagi et al. [Vitamins 39, 105 (1968)].
# (§2) Incubate a 0.5 mL solution containing 250 micrograms (µg) of LDL or 0.1 mL of plasma with the test compound, in amounts varying from 0 to 250 µg, for 30 minutes at 24°C. To this mixture add 10 µL of a cupric sulfate solution (final concentration 18 µM in LDL assay, 2 mM in plasma assay) and incubate at 37°C for 2.5 hours or 18 hours. Determine the amount of peroxidation of LDL or plasma by the thiobarbituric acid assay. Calculate the dose of test compound required to inhibit 50% of LDL or plasma lipid peroxidation (ID₅₀) and the concentration of test compound required to inhibit 50% of LDL or plasma lipid peroxidation (IC₅₀).
# plasma = test: Inhibition of plasma lipid peroxidation (cupric sulfate induced, thiobarbituric acid assay, method of Yagi et al.); format: biochemical; settings: 0.1 mL of plasma, cupric sulfate 2 mM, 37°C for 2.5 hours or 18 hours; for IC50: read-out: Plas.Lipid Perox. IC₅₀; for Plas.Lipid Perox. ID₅₀: dose required to inhibit 50% of plasma lipid peroxidation
# Method: as §1, §2
# [1] = Effect on serum cholesterol in the cholesterol-fed rabbit; format: in vivo
# From the text: Feed rabbits with 1% cholesterol (w/w) in standard rabbit chow supplemented with (n=5) or without (n=8) 0.5% anti-[8]-gingerdiol (w/w). Each rabbit consumes 120 grams of food per day. Collect blood samples and determine cholesterol in freshly prepared serum using an enzymatic method described by Mao et al., Clin.Chem 29, 1890 (1983).
# aortas = test: Antiatherogenic effect in the cholesterol-fed rabbit (Sudan IV stained aortic lesions); format: in vivo; settings: rabbits fed 1% cholesterol chow with 0.5% (w/w) compound for 56 days, n=5
# From the text: Feed rabbits with 1% cholesterol (w/w) in standard rabbit chow supplemented with (n=5) or without (n=6) 0.5% anti-[8]-gingerdiol (w/w) for 56 days. Each rabbit consumes 120 grams of food per day. Immediately following sacrifice by intravenous injection of sodium pentobarbital, dissect the aortas from the ascending arch to the […] bifurcation.
# Remove extraneous adipose tissue, open the aortas longitudinally and rinse several times with saline. Stain the aortas with Sudan IV and photograph using the method described by Mao et al. [J.Med.Chem. 34, 302 (1991)]. Digitize the areas of sudanophilic lesions in the thoracic region of the aorta with a Magiscan image analysis system. Distinguish stained versus unstained areas on the basis of Sudan Red staining. Quantitate the corresponding lesioned and unlesioned areas accordingly.
IC50 (LDL) [µM],IC50 (plasma) [µM],Compound,LDL Perox. ID₅₀ (LDL) [nmol],Plas.Lipid Perox. ID₅₀ (plasma) [nmol],"Cholesterol (mg/dL±SEM) Day 0 ([1]; Day 0 (baseline), rabbits fed 1% cholesterol chow with 0.5% (w/w) compound, n=5) [mg/dL]","Cholesterol (mg/dL±SEM) Day 10 ([1]; Day 10, rabbits fed 1% cholesterol chow with 0.5% (w/w) compound, n=5, control 790 ± 103) [mg/dL]","Cholesterol (mg/dL±SEM) Day 28 ([1]; Day 28, rabbits fed 1% cholesterol chow with 0.5% (w/w) compound, n=5, control 2177 ± 97) [mg/dL]","% Lesions (±SEM) in Abdominal (aortas; abdominal aorta, control 28 ± 7) [%]","% Lesions (±SEM) in Arch (aortas; aortic arch, control 83 ± 7) [%]","% Lesions (±SEM) in Thoracic (aortas; thoracic aorta, control 62 ± 8) [%]"
72,16.6,"CCCCCCCC(O)CC(O)CCc1ccc(O)c(OC)c1 (stereo not drawn) [anti-[8]-Gingerdiol, Anti-1-(4'-hydroxy-3'-methoxyphenyl)-3,5-dodecanediol]",40,10,82 ± 12,515 ± 154,1615 ± 216,24 ± 10,73 ± 12,38 ± 16
109,8.3,"CCCCCCCC(O)CC(=O)CCc1ccc(O)c(OC)c1 (centres unmarked) [[8]-Gingerol, 1-(4'-Hydroxy-3'-methoxyphenyl)-5-hydroxy-3-dodecanone]",60,5,–,–,–,–,–,–
